≈ marks a conversion by molar mass, not a printed value.

The term solubility denotes how much of the substance goes into solution per volume.

The test system of series [1] is blood uric acid. The following applies: applicant. As for the experimental part:
2. Preparation of Oral Liquid • Take KOH0.12 g, dissolve in 1 liters of distilled water, and get a concentration of 0.0021 mol/L. Take orally for 50 ml per time and one time per day.
So they began to take oral use tests from January 2016. […] The oral concentration (mol/L) they had tried includes 0.001, 0.0018, 0.0021, 0.0025, 0.003, 0.005 and 0.008 in turn.

For another series, the system named is gout attack. An excerpt:
2. Preparation of Embrocation • Take KOH16.8 g, dissolve in 1 liters of distilled water, and get a concentration of 0.3 mol/L.
They dripped a cotton swab into the embrocation (0.1 mol/L) prepared by themself and embrocated on the attack position.

Series [2] deals with blood uric acid. The following applies: applicant. As for the experimental part:
On December 3, they took a footbath in 45° C. soaking solution (0.01 mol/L) for an hour, and then went to test at Chaohu Hospital of Anhui Medical University.
The source holds these as a separate data set.

Another series has as its system gout. On the procedure: The solution can be also heated to 40-48° C. and then used for footbath. For acute gout attack, if the attack position is easy to soak, such as ankles, toe joints, hands and wrist joints, the solution can also be used to soak such positions. The solution should be embrocated on the attack positions if such positions are not convenient to soak, such as knee joints and elbow joints. […] Drip a cotton swab in the embrocation and embrocate on the attack positions, or drip a dressing in the embrocation and apply on the attack positions. It is very inconvenient to undress when applying topical drug in cold season, then oral drug is an option. […] Have 50 ml of the liquid before meals. For the sufferers of high blood uric acid and acute, intermittent and chronic gout, the embrocation, soak solution and oral liquid can be used separately or concurrently at the same time.

For another series, the system named is high uric acid and gout. The note with it: water injection for intravenous drip, high uric acid and gout sufferers.
The conditions of series [3]: cited from earlier work; for solubility: 37° C.
For series [4] the following is noted: cited from earlier work.
The mark [5] stands for this setting: December 3, one footbath in 45° C. soaking solution (0.01 mol/L) for an hour.
Where [6] appears, read: baseline, day after eating two chicken livers.

For `[K+].[OH-]` [KOH, potassium hydroxide], the “blood uric acid after oral use” value with blood uric acid [1] (April 2016, after oral KOH solution 23 times since January 2016) was 351 µmol/L. For the same molecule, in the series on blood uric acid [1] (oral liquid 0.001 mol/L-0.005 mol/L), the “discomfort / taste of oral liquid” value was “brought no discomfort to the body”. Moreover, in the series with gout attack (embrocation 0.1 mol/L on first metatarsophalangeal joint, applicant, May 2008), the “time until pain was relieved and foot could touch the ground” value is “about ten”. For the same molecule, the “time until gout symptoms disappeared” value with gout attack (embrocation 0.1 mol/L, 2-3 times per day, applicant) was “three”. In addition, the “effect on swelling and soreness (forerunner of gout), prevention of onset” value in the series on gout attack (embrocation, molar concentration of KOH solution 0.1, 0.2, 0.3 and 0.4, 2009-2013, applicant) is reported as “all were effective”. In the series on blood uric acid [2] (setting [5]), the “blood uric acid after footbath” value was determined as 486 μmol/LL and the “urine uric acid after footbath” value was 6.59 mmol/L. Moreover, the “blood uric acid after footbath once a day” value in the series on blood uric acid [2] (December 10, footbath once a day since December 3, soaking solution 0.01 mol/L) is 389 µmol/L. In addition, in the series on blood uric acid [2] (December 10 versus 495 μmol/L before footbath), the “drop of blood uric acid” value worked out at 21%. In the series on blood uric acid [2] (setting [6]), the “blood uric acid before footbath” value was 495 µmol/L and the “urine uric acid before footbath” value came to 6.3 mmol/L. In addition, in the series with gout (footbath, oral or embrocation), the “consecutive days of application until gout symptoms completely disappear” value was 2 to 3 days; the “time to relief of symptoms (pain and swelling during gout attack)” value was “ten”. In the series with gout (low concentration KOH), the “corrosion of the skin” value was “will not corrode the skin” and the side effects result is listed as “no side effects”. For the same molecule, the “anticipated effect of intravenous drip” value with high uric acid and gout is “immediate effect”.
Take `O=c1[nH]c(=O)c2[nH]c(=O)[nH]c2[nH]1` [potassium urate]: in series [3], the “solubility compared with uric acid and sodium urate” value is “much higher than uric acid and sodium urate”.
Turning to `O=c1[nH]c(=O)c2[nH]c([O-])nc2[nH]1.[Na+]` [sodium urate], the solubility in series [3] is 8.0 mM.
For the molecule `O=c1[nH]c(=O)c2[nH]c(=O)[nH]c2[nH]1` [uric acid, 2,6,8-Trihydroxypurine], the “dissociation constant (PKa), the 3rd nitrogen dissociation” value in series [4] is 10.3. Besides, in series [3], the solubility was 0.5 mM (≈ 84.1 µg/mL).
